# Square brackets hold non-standard residues; d marks the D form. Side chains are listed from the residue outwards. Peptide text beside a SMILES is read from it. * marks the point of attachment. C20 diacid = O=C(O)CCCCCCCCCCCCCCCCCCC(=O)*; αMePhe(2-F) = C[C@](N)(Cc1ccccc1F)C(=O)O; αMeL = CC(C)C[C@](C)(N)C(=O)O; AEEA = NCCOCCOCC(=O)O; Aib = CC(C)(N)C(=O)O
# Tests used:
# [1] = biological target: human GLP-1 receptor (GLP-1R) (Homo sapiens, UniProt P43220); assay: cAMP pharmacological functional assay in presence of casein, hGLP-1R; format: cell-based; conditions: HEK293 cells expressing hGLP-1R, 0.1% Casein, geometric mean; read-out: hGLP1R cAMP Rel EC50 nM (SEM, n)
# human Gcg receptor = biological target: T1, human Gcg receptor (Homo sapiens, UniProt P47871); assay: [125I]-Glucagon binding (SPA), human Gcg receptor; conditions: read-out: hGLcgR Ki, nM (SEM, n)
# T1 construct: expressed in transfected cells; crude membranes
# Outline: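 Scintillation counts are taken after membranes and WGA beads incubate and settle for 12 hours at room temperature. Buffer is 25 mM HEPES, pH 7.4, with CaCl2, MgCl2, bacitracin and Tween-20. Ki values, from four-parameter IC50 fits, are geometric means over independent days.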
# human GLP-1R = human GLP-1R (Homo sapiens, UniProt P43220); assay: [125I]-GLP-1 binding (SPA), human GLP-1 receptor; parameters: expressed in transfected cells; crude membranes; conditions: read-out: hGLP1R Ki, (nM) (SEM, n)
# Outline: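 Membranes: hypotonic lysis (50 mM Tris HCl, pH 7.5, protease inhibitors), Potter-Elvehjem homogenization, high-speed pellet (35000×g 1 h or 25000×g 30 min, 4° C.). Buffer: 25 mM HEPES pH 7.4, 2.5 mM CaCl2, 1 mM MgCl2. Four-parameter IC50 fit; Ki as geometric mean ± SEM.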
# [2] = biological target: T2, gastric inhibitory peptide receptor (GIPR) (Homo sapiens, UniProt P48546); assay: cAMP pharmacological functional assay in presence of casein, hGIPR; format: cell-based; conditions: HEK293 cells expressing hGIPR, 0.1% Casein, geometric mean; read-out: hGIPR cAMP Rel EC50 nM (SEM, n)
# T2 sequence (P48546 22-466): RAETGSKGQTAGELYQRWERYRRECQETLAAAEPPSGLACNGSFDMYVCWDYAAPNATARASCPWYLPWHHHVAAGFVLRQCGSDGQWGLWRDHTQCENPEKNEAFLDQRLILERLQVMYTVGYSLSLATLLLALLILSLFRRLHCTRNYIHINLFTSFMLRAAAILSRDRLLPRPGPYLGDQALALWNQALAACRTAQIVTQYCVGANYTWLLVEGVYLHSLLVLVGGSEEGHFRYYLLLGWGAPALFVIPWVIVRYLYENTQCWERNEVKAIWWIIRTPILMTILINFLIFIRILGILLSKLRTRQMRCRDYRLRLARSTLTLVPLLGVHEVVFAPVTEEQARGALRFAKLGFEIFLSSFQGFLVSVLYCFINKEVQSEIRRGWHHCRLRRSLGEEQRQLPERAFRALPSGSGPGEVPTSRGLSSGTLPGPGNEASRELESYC
# human GIP receptor = biological target: T3, human GIP receptor (Homo sapiens, UniProt P48546); assay: [125I]-GIP binding (SPA), human GIP receptor; conditions: read-out: hGIPR Ki, nM (SEM, n)
# T3 construct: expressed in transfected cells; crude membranes
# T3 sequence (P48546 22-466): T2 sequence (P48546 22-466)
# Sequence of human GLP-1R (P43220 24-463): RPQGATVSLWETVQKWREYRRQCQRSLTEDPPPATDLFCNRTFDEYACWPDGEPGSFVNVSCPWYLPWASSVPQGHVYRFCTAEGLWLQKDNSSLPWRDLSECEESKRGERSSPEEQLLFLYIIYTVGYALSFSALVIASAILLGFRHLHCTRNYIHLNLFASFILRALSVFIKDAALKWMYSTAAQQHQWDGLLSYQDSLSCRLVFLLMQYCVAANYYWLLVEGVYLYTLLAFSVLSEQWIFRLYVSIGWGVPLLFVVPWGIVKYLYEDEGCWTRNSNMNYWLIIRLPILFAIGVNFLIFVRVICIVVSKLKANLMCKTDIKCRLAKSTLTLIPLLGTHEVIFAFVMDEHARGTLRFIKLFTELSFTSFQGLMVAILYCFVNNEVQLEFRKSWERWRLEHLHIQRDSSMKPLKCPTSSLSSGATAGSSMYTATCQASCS
# Sequence of human GLP-1 receptor (GLP-1R) (P43220 24-463): as above
# T1 sequence (P47871 26-477): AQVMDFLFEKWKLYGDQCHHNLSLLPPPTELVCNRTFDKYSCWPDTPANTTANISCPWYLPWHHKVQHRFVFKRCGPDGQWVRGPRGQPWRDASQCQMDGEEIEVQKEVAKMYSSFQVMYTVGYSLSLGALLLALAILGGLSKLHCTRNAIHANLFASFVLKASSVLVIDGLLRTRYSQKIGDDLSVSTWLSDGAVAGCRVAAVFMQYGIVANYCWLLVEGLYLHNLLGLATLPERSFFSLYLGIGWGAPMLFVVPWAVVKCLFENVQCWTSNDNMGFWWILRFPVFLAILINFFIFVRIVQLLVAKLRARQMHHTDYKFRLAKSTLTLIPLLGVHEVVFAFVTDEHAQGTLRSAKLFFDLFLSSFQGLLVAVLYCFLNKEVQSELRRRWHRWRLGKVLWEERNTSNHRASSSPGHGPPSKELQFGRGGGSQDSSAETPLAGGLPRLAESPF
Structure (SMILES),EC50 [1] [nM],Ki (human Gcg receptor) [nM],Ki (human GLP-1R) [nM],EC50 [2] [nM],Ki (human GIP receptor) [nM]
CC[C@H](C)[C@H](NC(=O)[C@H](CC(C)C)NC(=O)[C@H](Cc1ccc(O)cc1)NC(=O)[C@@H](CCC(=O)O)NC(=O)[C@@H](NC(=O)[C@H](Cc1ccccc1)NC(=O)[C@H](CCC(=O)O)NC(=O)C(C)(C)NC(=O)[C@H](CCC(N)=O)NC(=O)[C@H](C)NC(=O)[C@H](CCCCNC(=O)COCCOCCNC(=O)COCCOCCNC(=O)CCCCCCCCCCCCCCCCCCC(=O)O)NC(=O)[C@H](CCC(=O)O)NC(=O)[C@H](CC(=O)O)NC(=O)[C@H](CC(C)C)NC(=O)[C@](C)(CC(C)C)NC(=O)[C@@H](NC(=O)[C@H](CO)NC(=O)[C@H](Cc1ccc(O)cc1)NC(=O)[C@H](CC(=O)O)NC(=O)[C@H](CO)NC(=O)[C@@H](NC(=O)[C@](C)(Cc1ccccc1F)NC(=O)[C@@H](NC(=O)CNC(=O)[C@H](CCC(=O)O)NC(=O)C(C)(C)NC(=O)[C@@H](N)Cc1ccc(O)cc1)[C@@H](C)O)[C@@H](C)O)[C@@H](C)CC)[C@@H](C)CC)C(=O)N[C@@H](CCC(=O)O)C(=O)NCC(=O)NCC(=O)N1CCC[C@H]1C(=O)N[C@@H](CO)C(=O)N[C@@H](CO)C(=O)NCC(=O)N[C@@H](C)C(=O)N1CCC[C@H]1C(=O)N1CCC[C@H]1C(=O)N1CCC[C@H]1C(=O)N[C@@H](CO)C(N)=O [Example 215] (H-Y[Aib]EGT[αMePhe(2-F)]TSDYSI[αMeL]LDEK([AEEA-AEEA-C20 diacid])AQ[Aib]EFI[dE]YLIEGGPSSGAPPPS-NH2),0.0529,75.2,6.85,0.0525,0.0666
CC[C@H](C)[C@H](NC(=O)[C@H](CC(C)C)NC(=O)[C@H](Cc1ccc(O)cc1)NC(=O)[C@@H](CCC(=O)O)NC(=O)[C@@H](NC(=O)[C@H](Cc1ccccc1)NC(=O)[C@H](CCC(=O)O)NC(=O)C(C)(C)NC(=O)[C@H](CCC(N)=O)NC(=O)[C@H](C)NC(=O)[C@H](CCCCNC(=O)COCCOCCNC(=O)COCCOCCNC(=O)[C@@H](N)CCCCNC(=O)CCCCCCCCCCCCCCCCCCC(=O)O)NC(=O)[C@H](CCC(=O)O)NC(=O)[C@H](CC(=O)O)NC(=O)[C@H](CC(C)C)NC(=O)C(C)(CC(C)C)NC(=O)[C@@H](NC(=O)[C@H](CO)NC(=O)[C@H](Cc1ccc(O)cc1)NC(=O)[C@H](CC(=O)O)NC(=O)[C@H](CO)NC(=O)[C@@H](NC(=O)C(C)(Cc1ccccc1F)NC(=O)[C@@H](NC(=O)CNC(=O)[C@H](CCC(=O)O)NC(=O)C(C)(C)NC(=O)[C@@H](N)Cc1ccc(O)cc1)[C@@H](C)O)[C@@H](C)O)[C@@H](C)CC)[C@@H](C)CC)C(=O)N[C@@H](CCC(=O)O)C(=O)NCC(=O)NCC(=O)N1CCC[C@H]1C(=O)N[C@@H](CO)C(=O)N[C@@H](CO)C(=O)NCC(=O)N[C@@H](C)C(=O)N1CCC[C@H]1C(=O)N1CCC[C@H]1C(=O)N1CCC[C@H]1C(=O)N[C@@H](CO)C(N)=O (stereo partly shown) [Example 216],0.0327,45.2,2.34,0.0401,0.0559

# Reference: patent publication US12252524B2, “GIP/GLP1 co-agonist compounds” (Eli Lilly and Company, priority 2018, dated 2025)
